Values of other authors, collected in patent US8946148B2 (Ambrx, Inc., priority 2007, dated 2015).

Tested on: patients with NIDDM and impaired glucose tolerance

## Cc1c(C)c2c(c(C)c1O)CCC(C)(COc1ccc(CC3SC(=O)NC3=O)cc1)O2 (stereo not shown) [Troglitazone]
  effect on insulin resistance: reverse insulin resistance
